Entries after “also recorded” stand apart in the source; their conditions may differ.
Assays:
CQ-resistant malaria = details: cited from earlier work; for activity against malaria / CQ-resistant malaria (in words): literature
[1] = system: P. falciparum clone D-6 (Sierra Leone); format: cell-based, Plasmodium falciparum; details: D-6 clone (resistant to mefloquine)
Experimental: (§1) In vitro activity against P. falciparum was determined using a modification of the semiautomated microdilution technique of Desjardins et al. (1979) and Milhous et al. (1985). Two P. falciparum malaria parasite clones, designated as Sierra Leone (D-6) and Indochina (W-2), are used in susceptibility testing. The former is resistant to mefloquine, and the latter to CQ, pyrimethamine, sulfadoxine, and quinine. Test compounds are dissolved in dimethylsulfoxide, and solutions serially diluted with culture media. Erythrocytes with 0.25 to 0.5% parasitemia are added to each well of a 96-well microdilution plate to give a final hematocrit of 1.5%. […] Results are reported as […] (ng/mL) values. For a complete description of this assay, see Milhous et al. (1985) and Lin et al. (1987).

[2] = system: P. falciparum clone W-2 (Indochina); format: cell-based, Plasmodium falciparum
Experimental: as §1

[3] = system: P. berghei (strain KBG 173); experiment: In vivo activity against P. berghei in mice, single subcutaneous dose 3 days after infection; design: species or system Plasmodium berghei; mice
Experimental: In vivo activity against P. berghei was obtained against a drug-sensitive strain of P. berghei (strain KBG 173) (Osdene et al., 1967). Each test compound is administered subcutaneous to five male mice per dilution in a single subcutaneous dose 3 days after infection. Results are expressed in T-C values which indicate the mean survival time of the treated mice beyond that of the control animals; untreated mice survive on average 6.2 days. Compounds are classified as active (A) when the mean survival time of the treated mice is twice that of the controls (>6.2 days), and curative (C) when one or more test animals live 60 days post-infection. Deaths from 0-2 days post-treatment are attributed to toxicity (T).

P. falciparum = experiment: In vitro activity against P. falciparum (both clones, D-6 and W-2); format: cell-based, Plasmodium falciparum; details: for Resistance Index: IC50 (W2)/IC50 (D6) ratio; for IC50: Plasmodium falciparum, clone not specified; for antimalarial activity (in words): general statement, refers to Table I
Experimental: as §1

[4] = 40 mg/kg s.c., single dose 3 days post infection, n = 5
[5] = 160 mg/kg s.c., single dose 3 days post infection, n = 5
[6] = compared to CQ, Li et al., 1981a, Lin et al., 1982
[7] = 640 mg/kg s.c., single dose 3 days post infection, n = 5

Compound	P. falciparum IC50 (nM) D-6 [1] [nM]	P. falciparum IC50 (nM) W-2 [2] [nM]	P. berghei T-C [3, 4] [days]	P. berghei T-C [3, 5] [days]	Resistance Index (P. falciparum)	IC50 (P. falciparum) [nM]	in vivo activity against P. berghei (in words) [3]	other results
C=C[C@H]1C[N@@]2CC[C@H]1C[C@H]2[C@H](O)c1ccnc2ccc(OC)cc12 [quinine]								activity against malaria / CQ-resistant malaria (in words) (CQ-resistant malaria): active to various extents against CQ-resistant malaria
Clc1ccc2c(NCCCCCCCNc3ccnc4cc(Cl)ccc34)ccnc2c1 [Compound 9, N^1, N^7 -Bis(7-chloroquinolin-4-Yl)heptane-1,7-diamine]	1.9	4.3	2.6	7.2	2.3	< 6		
CC(CNc1ccnc2cc(Cl)ccc12)Nc1ccnc2cc(Cl)ccc12 (stereo not drawn) [Compound 2, N1,N2 -Bis(7-chloroquinolin-4-yl)propane1,2-diamine]	3.5	3.9	3.4	5.7	1.1	< 6	either active or curative	antimalarial activity (in words) (P. falciparum): improved activity
OC(CN1CCN(c2ccnc3cc(Cl)ccc23)CC1)CN1CCN(c2ccnc3cc(Cl)ccc23)CC1 [hydroxypiperaquine]								duration of action (CQ-resistant malaria; [6]): longer duration of action; toxicity (CQ-resistant malaria; [6]): less toxicity when compared to CQ; activity against malaria / CQ-resistant malaria (in words) (CQ-resistant malaria): active against malaria; also recorded: very effective against CQ-resistant malaria in China
Clc1ccc2c(NCCCCCCCCCCNc3ccnc4cc(Cl)ccc34)ccnc2c1 [Compound 12, N^1, N^10 -Bis(7-chloroquinolin-4-yl)decane-l,10-diamine]	5.7	3.4	0.2	0.2	0.6			P. berghei T-C [3, 7]: 0.6 days
Clc1ccc2c(NCCCCCNc3ccnc4cc(Cl)ccc34)ccnc2c1 [Compound 6, N^1, N^5 -Bis(7-chloroquinolin-4-yl)pentane-1,5-diamine]	2.5	3.8	1.0	5.1	1.5	< 6	either active or curative	
Clc1ccc2c(NCCCCCCCCCNc3ccnc4cc(Cl)ccc34)ccnc2c1 [Compound 11, N^1, N^9 -Bis(7-chloroquinolin-4-yl)nonane-1,9-diamine]	3.0	2.3	3.1	7.4	0.8	< 6		P. berghei activity class (A = active, C = curative, with number of mice) ([3]; 640 mg/kg s.c., single dose, n = 5): A (active (A) when the mean survival time of the treated mice is twice that of the controls (>6.2 days))
CCN(CC)CCCC(C)Nc1ccnc2cc(Cl)ccc12 (stereo not drawn) [CQ, chloroquine, reference compound]					11.2			P. berghei T-C ([3]; CQ, 40 mg/kg s.c., average of ten best data sets from WRAIR): 8.7 days
Clc1ccc2c(NCCCCCCCCNc3ccnc4cc(Cl)ccc34)ccnc2c1 [Compound 10, N^1, N^8 -Bis(7-chloroquinolin-4-yl)octane-1,8diamine]	5.6	3.1	-0.2	1.0	0.6	< 6		
Clc1ccc2c(NCCCCCCCCCCCCNc3ccnc4cc(Cl)ccc34)ccnc2c1 [Compound 13, N^1 N^12 -Bis(7-chloroquinolin-4-yl)dodecane-1,12-diamine]	59.7	30.8	0.0	-0.2	0.5		without activity in vivo; also recorded: inactive in both screens	P. berghei T-C [3, 7]: 0.0 days; in vitro activity against P. falciparum (in words) (P. falciparum): approximately an order of magnitude less potent in vitro; also recorded: inactive in both screens
CCN(CC)Cc1cc(Nc2ccnc3cc(Cl)ccc23)ccc1O [amodiaquine]								activity against malaria / CQ-resistant malaria (in words) (CQ-resistant malaria): active to various extents against CQ-resistant malaria
Clc1ccc2c(N[C@@H]3CCCC[C@H]3Nc3ccnc4cc(Cl)ccc34)ccnc2c1 (relative stereo) [Compound 3, ±-trans-N^1,N^2 -Bis (7-chloroquinolin-4-Yl) cyclohexane-1,2-diamine]	1.0	1.4	8.5		1.4	< 6	either active or curative	mice cured ([3]; 160 mg/kg): 4/5; mice cured ([3]; 320 mg/kg): 5/5; in vitro activity against P. falciparum (in words) (P. falciparum): most potent bisquinoline in vitro; antimalarial activity (in words) (P. falciparum): exceptional activity
CC(CCCNc1ccnc2cc(Cl)ccc12)CNc1ccnc2cc(Cl)ccc12 (stereo not drawn) [Compound 7, N^1, N^5 -Bis(7-chloroquinolin-4-yl)-2-methylpentane-1,5-diamine]	2.7	3.0	1.2	3.6	1.1	< 6	either active or curative	antimalarial activity (in words) (P. falciparum): improved activity
Clc1ccc2c(NCCCCNc3ccnc4cc(Cl)ccc34)ccnc2c1 [Compound 5, N1,N4 -Bis(7-chloroquinolin-4-yl)butane-1,4-diamine]	387	80.9	0.5	2.3	0.2		without activity in vivo; also recorded: inactive in both screens	P. berghei T-C [3, 7]: 5.6 days; in vitro activity against P. falciparum (in words) (P. falciparum): approximately an order of magnitude less potent in vitro; also recorded: inactive in both screens
Clc1ccc2c(NCCCCCCNc3ccnc4cc(Cl)ccc34)ccnc2c1 [Compound 8, N^1, N^6 -Bis(7-chloroquinolin-4-yl)hexane-1,6-diamine]	21.1	23.4	0.4	3.9	1.1			
OC(c1cc(C(F)(F)F)nc2c(C(F)(F)F)cccc12)C1CCCCN1 (stereo not drawn) [mefloquine]								activity against malaria / CQ-resistant malaria (in words) (CQ-resistant malaria): active to various extents against CQ-resistant malaria
Clc1ccc2c(NCCCNc3ccnc4cc(Cl)ccc34)ccnc2c1 [Compound 4, N^1,N^3 -Bis(7-chloroquinolin-4-yl)propane1,3-diamine]	15.1	82.9	0.2	0.4	5.5		without activity in vivo; also recorded: inactive in both screens	P. berghei T-C [3, 7]: 1.2 days; in vitro activity against P. falciparum (in words) (P. falciparum): approximately an order of magnitude less potent in vitro; also recorded: inactive in both screens
CCN(CC)Cc1cc(Nc2ccnc3cc(Cl)ccc23)ccc1OC(=O)CCC(=O)Oc1ccc(Nc2ccnc3cc(Cl)ccc23)cc1CN(CC)CC [succinic acid diester of amodiaquine]								activity against malaria / CQ-resistant malaria (in words) (CQ-resistant malaria): inactive against malaria

From patent publication US5510356A, “Bisquinolines and processes for their production and use to treat malaria” (priority 1991, dated 1996)
